Results from patent publication US20230173113A1, “CYCLIC PEPTIDES AND THEIR CONJUGATES FOR ADDRESSING ALPHA-V-BETA-6 INTEGRIN IN VIVO” (Technische Universität München, priority 2020, published 2023).

What was measured:
[1] = test system: H2009 tumor-bearing SCID mice; assay: biokinetics from 90-min dynamic PET scans; details: mouse, in vivo
From the text: All animal studies have been performed in accordance with general animal welfare regulations in Germany and the institutional guidelines for the care and use of animals. H2009 human lung adenocarcinoma cells (CRL-5911; American Type Culture Collection) were cultivated as recommended by the distributor. To generate tumor xenografts, 6- to 8-week-old female CB17 SCID mice (Charles River) were inoculated with 10^7 H2009 cells in Matrigel (CultrexBME, type 3 PathClear; Trevigen, GENTAUR GmbH). Mice were used for biodistribution or PET studies when tumors had grown to a diameter of 10-12 mm (4-6 weeks after inoculation).
Mice were anaesthetized with isoflurane for intravenous administration of the radiolabeled compounds. The administered activity per mouse ranged between 10 and 15 MBq (100-200 pmol, depending on variations in timing of production and administration). PET imaging was performed on a Siemens Inveon small-animal PET system, either dynamic under isoflurane anaesthesia for 90 min, or as single frames 75 min p.i. with an acquisition time of 20 min. Data were reconstructed using Siemens Inveon Research Workspace software, employing a three-dimensional ordered subset expectation maximum (OSEM3D) algorithm without scatter and attenuation correction. For kinetic analyses, regions of interest (ROIs) were defined manually.

[2] = target: α5β1 (Homo sapiens, UniProt P05556+P08648); details: cited from earlier work
[3] = target: αvβ5 (Homo sapiens, UniProt P06756+P18084); details: cited from earlier work
[4] = target: αIIbβ3 (Homo sapiens, UniProt P05106+P08514); details: cited from earlier work
[5] = target: αvβ3 (Homo sapiens, UniProt P05106+P06756); details: cited from earlier work
[6] = target: αvβ6-integrin (Homo sapiens, UniProt P06756+P18564); details: cited from earlier work
[7] = up to 3 h; cited from earlier work

α5β1, sequence (P08648 42-995 limits assumed): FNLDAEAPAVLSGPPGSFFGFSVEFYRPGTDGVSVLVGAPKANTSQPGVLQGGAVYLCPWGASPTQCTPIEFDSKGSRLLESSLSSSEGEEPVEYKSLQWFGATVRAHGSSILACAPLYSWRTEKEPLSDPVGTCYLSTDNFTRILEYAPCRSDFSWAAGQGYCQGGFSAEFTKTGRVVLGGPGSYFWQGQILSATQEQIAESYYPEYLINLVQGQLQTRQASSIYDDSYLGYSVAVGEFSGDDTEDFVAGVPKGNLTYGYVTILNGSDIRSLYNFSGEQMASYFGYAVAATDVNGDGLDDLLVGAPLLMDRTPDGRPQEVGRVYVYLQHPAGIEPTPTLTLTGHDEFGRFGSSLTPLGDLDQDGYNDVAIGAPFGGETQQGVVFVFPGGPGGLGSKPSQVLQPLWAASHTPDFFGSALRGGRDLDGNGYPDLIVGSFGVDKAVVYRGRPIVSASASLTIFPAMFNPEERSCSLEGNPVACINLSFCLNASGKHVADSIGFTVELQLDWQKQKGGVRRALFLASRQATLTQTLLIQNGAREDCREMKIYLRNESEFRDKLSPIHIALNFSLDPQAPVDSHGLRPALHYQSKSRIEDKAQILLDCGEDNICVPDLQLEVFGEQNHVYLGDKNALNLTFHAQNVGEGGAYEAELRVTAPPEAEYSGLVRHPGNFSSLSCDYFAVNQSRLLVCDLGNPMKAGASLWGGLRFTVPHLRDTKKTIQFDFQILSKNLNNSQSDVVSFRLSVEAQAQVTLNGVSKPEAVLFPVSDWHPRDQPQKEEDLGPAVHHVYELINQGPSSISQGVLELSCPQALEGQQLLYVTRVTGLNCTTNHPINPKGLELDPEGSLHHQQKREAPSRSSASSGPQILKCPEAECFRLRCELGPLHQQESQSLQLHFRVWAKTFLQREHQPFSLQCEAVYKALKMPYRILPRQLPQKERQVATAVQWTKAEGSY
α5β1, sequence (P05556 21-728 limits assumed): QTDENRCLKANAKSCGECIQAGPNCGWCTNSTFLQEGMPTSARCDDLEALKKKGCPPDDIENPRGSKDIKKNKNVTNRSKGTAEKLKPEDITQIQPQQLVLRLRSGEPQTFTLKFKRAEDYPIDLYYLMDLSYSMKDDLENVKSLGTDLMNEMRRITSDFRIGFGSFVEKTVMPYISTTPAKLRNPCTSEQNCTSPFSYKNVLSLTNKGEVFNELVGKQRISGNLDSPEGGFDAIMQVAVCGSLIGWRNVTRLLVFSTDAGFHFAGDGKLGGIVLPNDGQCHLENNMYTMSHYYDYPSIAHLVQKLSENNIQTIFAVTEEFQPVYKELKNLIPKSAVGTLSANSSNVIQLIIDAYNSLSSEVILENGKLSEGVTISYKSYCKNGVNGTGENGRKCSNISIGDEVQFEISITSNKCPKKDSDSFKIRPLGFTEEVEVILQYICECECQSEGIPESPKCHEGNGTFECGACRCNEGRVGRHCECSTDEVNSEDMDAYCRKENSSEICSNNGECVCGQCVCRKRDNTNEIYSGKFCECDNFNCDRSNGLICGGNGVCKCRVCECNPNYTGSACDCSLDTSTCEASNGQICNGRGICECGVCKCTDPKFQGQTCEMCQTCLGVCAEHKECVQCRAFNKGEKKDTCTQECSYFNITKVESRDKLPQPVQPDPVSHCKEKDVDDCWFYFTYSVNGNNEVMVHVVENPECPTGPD
αvβ5, sequence (P06756 31-1048): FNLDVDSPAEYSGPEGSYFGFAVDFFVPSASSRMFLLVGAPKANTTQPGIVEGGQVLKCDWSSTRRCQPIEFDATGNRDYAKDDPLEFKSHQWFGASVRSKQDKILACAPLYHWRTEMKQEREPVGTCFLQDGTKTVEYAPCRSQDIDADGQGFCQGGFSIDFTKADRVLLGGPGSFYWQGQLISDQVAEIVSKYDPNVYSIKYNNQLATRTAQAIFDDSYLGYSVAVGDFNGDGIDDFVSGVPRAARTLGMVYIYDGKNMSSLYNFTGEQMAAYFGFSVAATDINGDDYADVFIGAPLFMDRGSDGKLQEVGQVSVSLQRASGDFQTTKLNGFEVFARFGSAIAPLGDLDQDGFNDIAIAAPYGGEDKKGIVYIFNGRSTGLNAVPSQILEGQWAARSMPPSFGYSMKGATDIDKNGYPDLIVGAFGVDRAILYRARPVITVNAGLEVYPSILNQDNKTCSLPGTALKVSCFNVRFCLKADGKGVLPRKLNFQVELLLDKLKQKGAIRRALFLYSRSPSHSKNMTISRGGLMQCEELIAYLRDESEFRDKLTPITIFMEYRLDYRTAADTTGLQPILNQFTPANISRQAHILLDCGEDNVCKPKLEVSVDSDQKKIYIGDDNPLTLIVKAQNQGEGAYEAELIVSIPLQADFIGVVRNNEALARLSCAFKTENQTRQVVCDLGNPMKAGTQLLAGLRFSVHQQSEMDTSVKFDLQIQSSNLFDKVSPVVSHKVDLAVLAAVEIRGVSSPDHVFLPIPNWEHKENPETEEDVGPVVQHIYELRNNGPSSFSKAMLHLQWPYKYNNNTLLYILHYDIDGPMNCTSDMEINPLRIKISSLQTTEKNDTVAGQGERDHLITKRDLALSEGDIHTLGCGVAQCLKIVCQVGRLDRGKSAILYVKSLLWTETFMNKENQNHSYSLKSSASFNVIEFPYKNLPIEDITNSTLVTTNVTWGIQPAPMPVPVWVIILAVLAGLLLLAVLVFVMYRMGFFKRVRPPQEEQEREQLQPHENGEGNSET
αvβ5, sequence (P18084 24-799): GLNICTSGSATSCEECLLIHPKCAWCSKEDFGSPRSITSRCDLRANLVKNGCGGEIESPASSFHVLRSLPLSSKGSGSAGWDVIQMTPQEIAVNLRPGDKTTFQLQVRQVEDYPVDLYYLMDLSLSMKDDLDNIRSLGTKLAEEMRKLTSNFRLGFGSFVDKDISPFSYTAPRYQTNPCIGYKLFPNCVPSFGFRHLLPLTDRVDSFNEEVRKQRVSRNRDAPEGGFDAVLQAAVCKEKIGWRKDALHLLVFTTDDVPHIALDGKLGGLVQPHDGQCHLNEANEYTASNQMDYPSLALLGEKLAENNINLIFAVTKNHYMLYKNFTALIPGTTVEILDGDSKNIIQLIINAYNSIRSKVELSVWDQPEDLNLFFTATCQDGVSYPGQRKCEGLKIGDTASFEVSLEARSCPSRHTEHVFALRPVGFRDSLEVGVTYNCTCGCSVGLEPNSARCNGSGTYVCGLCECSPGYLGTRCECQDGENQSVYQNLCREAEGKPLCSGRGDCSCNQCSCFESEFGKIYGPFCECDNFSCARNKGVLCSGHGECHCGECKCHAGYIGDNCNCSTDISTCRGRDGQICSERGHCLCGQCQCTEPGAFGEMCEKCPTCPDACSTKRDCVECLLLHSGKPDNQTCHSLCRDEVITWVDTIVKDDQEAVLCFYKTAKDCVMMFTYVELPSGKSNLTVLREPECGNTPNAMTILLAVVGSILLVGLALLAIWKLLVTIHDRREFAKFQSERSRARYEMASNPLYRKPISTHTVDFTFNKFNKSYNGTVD
αvβ6-integrin, sequence (P06756 31-992 limits assumed): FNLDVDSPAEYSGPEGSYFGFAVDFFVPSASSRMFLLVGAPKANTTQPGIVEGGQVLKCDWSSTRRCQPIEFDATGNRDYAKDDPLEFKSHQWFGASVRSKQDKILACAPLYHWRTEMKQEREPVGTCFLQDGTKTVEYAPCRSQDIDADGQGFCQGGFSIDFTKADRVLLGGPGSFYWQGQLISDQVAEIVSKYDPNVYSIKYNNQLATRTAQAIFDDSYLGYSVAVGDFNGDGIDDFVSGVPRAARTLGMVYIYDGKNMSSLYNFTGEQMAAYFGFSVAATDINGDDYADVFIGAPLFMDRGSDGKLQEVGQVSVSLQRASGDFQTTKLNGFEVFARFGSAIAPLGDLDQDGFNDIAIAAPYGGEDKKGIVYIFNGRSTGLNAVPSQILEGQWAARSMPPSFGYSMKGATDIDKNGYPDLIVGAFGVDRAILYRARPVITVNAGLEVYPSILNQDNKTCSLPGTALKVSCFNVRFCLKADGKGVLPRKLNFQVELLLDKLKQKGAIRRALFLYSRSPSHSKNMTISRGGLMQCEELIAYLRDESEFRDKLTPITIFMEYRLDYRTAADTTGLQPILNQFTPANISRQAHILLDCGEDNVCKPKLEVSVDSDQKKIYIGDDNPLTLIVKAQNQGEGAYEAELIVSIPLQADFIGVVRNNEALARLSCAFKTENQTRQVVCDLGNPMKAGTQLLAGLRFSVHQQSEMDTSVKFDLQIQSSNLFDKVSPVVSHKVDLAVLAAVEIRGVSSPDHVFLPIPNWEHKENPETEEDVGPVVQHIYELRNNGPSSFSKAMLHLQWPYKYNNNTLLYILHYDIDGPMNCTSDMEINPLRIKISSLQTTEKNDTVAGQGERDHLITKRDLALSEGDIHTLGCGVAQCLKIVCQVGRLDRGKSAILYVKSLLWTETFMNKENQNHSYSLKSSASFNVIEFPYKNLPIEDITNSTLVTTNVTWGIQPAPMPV
αvβ6-integrin, sequence (P18564 22-707 limits assumed): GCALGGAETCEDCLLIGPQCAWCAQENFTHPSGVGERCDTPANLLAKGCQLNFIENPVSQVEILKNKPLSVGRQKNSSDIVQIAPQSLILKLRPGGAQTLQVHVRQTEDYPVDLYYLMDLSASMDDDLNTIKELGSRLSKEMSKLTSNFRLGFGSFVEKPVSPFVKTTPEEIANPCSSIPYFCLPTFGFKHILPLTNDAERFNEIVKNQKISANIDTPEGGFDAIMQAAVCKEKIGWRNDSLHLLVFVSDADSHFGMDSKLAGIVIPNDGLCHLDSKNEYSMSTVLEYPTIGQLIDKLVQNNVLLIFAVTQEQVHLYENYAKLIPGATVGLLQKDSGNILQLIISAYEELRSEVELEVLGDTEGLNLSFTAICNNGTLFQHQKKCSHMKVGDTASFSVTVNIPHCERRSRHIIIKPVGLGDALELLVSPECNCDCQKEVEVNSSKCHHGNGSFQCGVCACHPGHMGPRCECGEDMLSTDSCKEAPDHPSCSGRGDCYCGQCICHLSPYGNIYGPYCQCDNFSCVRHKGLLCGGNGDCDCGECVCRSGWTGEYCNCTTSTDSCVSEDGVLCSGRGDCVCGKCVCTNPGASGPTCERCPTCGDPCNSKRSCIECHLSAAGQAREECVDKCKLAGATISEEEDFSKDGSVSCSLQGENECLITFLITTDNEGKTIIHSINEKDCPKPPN

| Molecule | clearance from the blood pool [1] | affinity α5β1 (selectivity against other integrins) [2] | affinity αvβ5 (selectivity against other integrins) [3] | affinity αIIbβ3 (selectivity against other integrins) [4] | affinity αvβ3 (selectivity against other integrins) [5] | affinity to αvβ6-integrin [6] | stability in human plasma [7] |
| --- | --- | --- | --- | --- | --- | --- | --- |
| CC(C)C[C@@H]1NC(=O)[C@H](CC(=O)O)NC(=O)CNC(=O)[C@H](CCCNC(=N)N)NC(=O)[C@H](Cc2ccc(O)cc2)NC(=O)[C@H](CCCCNC(=O)CCc2cn(CCCNC(=O)CCP(=O)(O)CN3CCN(CP(=O)(O)CCC(=O)NCCCn4cc(CCC(=O)NCCCC[C@H]5C(=O)N[C@@H](Cc6ccc(O)cc6)C(=O)N[C@@H](CCCNC(=N)N)C(=O)NCC(=O)N[C@@H](CC(=O)O)C(=O)N[C@@H](CC(C)C)C(=O)N[C@@H](C)C(=O)N[C@@H](Cc6ccccc6)C(=O)N6CCC[C@@H]6C(=O)N5C)nn4)CCN(CP(=O)(O)CCC(=O)NCCCn4cc(CCC(=O)NCCCC[C@H]5C(=O)N[C@@H](Cc6ccc(O)cc6)C(=O)N[C@@H](CCCNC(=N)N)C(=O)NCC(=O)N[C@@H](CC(=O)O)C(=O)N[C@@H](CC(C)C)C(=O)N[C@@H](C)C(=O)N[C@@H](Cc6ccccc6)C(=O)N6CCC[C@@H]6C(=O)N5C)nn4)CC3)nn2)N(C)C(=O)[C@H]2CCCN2C(=O)[C@H](Cc2ccccc2)NC(=O)[C@H](C)NC1=O [Ga-68-C-9, metal not drawn] | much faster than that of Ga-68-TRAP(Phe2)3 |  |  |  |  |  |  |
| cyclo(FRGDLAFp(NMe)K) [Phe2] |  | 73 nM | > 1 µM | > 1 µM | 632 nM | 0.26 nM | full stability |
